Test results taken from PubChem BioAssay (NCI).
“And” between values parts separate entries of the source, which are not always exact repeats. Identical values can stand only once.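 Results reflect a 48-hour exposure of cells in 96-well plates to compound at five concentrations. At the GI50, growth is halved. The concentration for full growth arrest is given as TGI.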

How the values were obtained:
Test in all cases: NCI anticancer screen, dose series, 48 h
HCC-2998 colon = test system: HCC-2998 colon
RPMI-8226 leukemia = test system: RPMI-8226 leukemia
ACHN renal = test system: ACHN renal
SK-OV-3 ovarian = test system: SK-OV-3 ovarian
HOP-62 NSCLC = test system: HOP-62 NSCLC
HL-60(TB) leukemia = test system: HL-60(TB) leukemia
KM12 colon = test system: KM12 colon
COLO 205 colon = test system: COLO 205 colon
HOP-92 NSCLC = test system: HOP-92 NSCLC
HS 578T breast = test system: HS 578T breast

SMILES | TGI (HCC-2998 colon) | TGI (RPMI-8226 leukemia) | TGI (ACHN renal) | TGI (SK-OV-3 ovarian) | TGI (HOP-62 NSCLC) | TGI (HL-60(TB) leukemia) | TGI (KM12 colon) | TGI (COLO 205 colon) | TGI (HOP-92 NSCLC) | GI50 (HCC-2998 colon) | GI50 (RPMI-8226 leukemia) | GI50 (HOP-92 NSCLC) | GI50 (ACHN renal) | GI50 (SK-OV-3 ovarian) | GI50 (HOP-62 NSCLC) | GI50 (HL-60(TB) leukemia) | GI50 (KM12 colon) | GI50 (COLO 205 colon) | GI50 (HS 578T breast) | TGI (HS 578T breast)
CC(C)(C)c1cc(CCC(=O)Nc2ccc(Cl)cc2)[nH]c(=S)n1 | > 100 µM | > 100 µM | > 100 µM | > 100 µM | > 100 µM | > 100 µM | > 100 µM | > 100 µM |  |  |  |  |  |  |  |  |  |  |  | 
COC(=O)C(=O)Cc1nc2ccccc2s1 | > 100 µM |  | > 100 µM | > 100 µM | > 100 µM | > 100 µM |  | > 100 µM | > 100 µM |  |  |  |  |  |  |  |  |  |  | 
O=C1Nc2ccc(Br)cc2C12CC(c1ccccc1)=NN2 (stereo not given) | 65.1 µM | 12.2 µM | > 100 µM | 87.3 µM | > 100 µM | 8.47 µM | 38.8 µM | 15.2 µM | 26.2 µM | 15.9 µM | 3.07 µM | 1.66 µM | 7.96 µM | 4.44 µM | 6.17 µM | 2.77 µM | 3.86 µM | 3.79 µM |  | 
CCCCC1=CSC(c2ccccc2)=C(c2ccccc2)S1 | > 100 µM | > 100 µM |  | > 100 µM |  |  | > 100 µM | > 100 µM | 60.9 µM |  |  |  |  |  |  |  |  |  |  | 
O=C1c2ccccc2C(=O)c2cc3c(cc21)CS(=O)C3 | > 100 µM | > 100 µM | > 100 µM | > 100 µM | > 100 µM | > 100 µM | > 100 µM | > 100 µM | > 100 µM |  |  |  |  |  |  |  |  |  |  | 
CCOCC1(COCC)CCC(c2[nH]ncc2CN(C)CCNC)CC1 | > 100 µM | > 100 µM | > 100 µM | > 100 µM | > 100 µM | > 100 µM | > 100 µM | > 100 µM |  | > 100 µM | 19.8 µM |  | > 100 µM | > 100 µM | > 100 µM | > 100 µM | > 100 µM | > 100 µM | > 100 µM | > 100 µM
Cn1c(CBr)nc2c1C(=O)c1nc(CBr)[nH]c(=O)c1C2=O |  | > 100 µM | > 100 µM | > 100 µM |  |  |  | > 100 µM | > 100 µM |  |  |  |  |  |  |  |  |  |  | 
COC1C2C[C@@H](O)CCC2C(C(=O)OCCl)C[C@H]1O (stereo not given in full) | > 100 µM | > 100 µM | > 100 µM | > 100 µM | > 100 µM | > 100 µM | > 100 µM | > 100 µM |  |  |  |  |  |  |  |  |  |  |  | 
CC(C)(C)c1cc(C(=O)Nc2ccccc2C(=O)NCCN)cc(C(C)(C)C)c1 | 3.4 µM |  | 3.46 µM | 3.69 µM | 3.21 µM | 4.46 µM | 3.4 µM | 3.41 µM |  | 1.83 µM |  |  | 1.84 µM | 1.9 µM | 1.67 µM | 2.15 µM | 1.79 µM | 1.81 µM | 2.07 µM | 4.63 µM
COC(=O)CCSC(=O)Nc1ccc(N=Nc2ccccc2)cc1 | 59 µM | > 100 µM | > 100 µM | > 100 µM | > 100 µM |  | > 100 µM | 47.7 µM | > 100 µM |  |  |  |  |  |  |  |  |  |  | 
COc1cccc2c1-c1nc(N)c3c(OC)cccc3c1C2=O |  | > 100 µM |  | > 100 µM | 58.5 µM | 72.5 µM | 35.3 µM | > 100 µM | > 100 µM |  |  |  |  |  |  |  |  |  |  | 52.3 µM
CCOC(=O)c1c(-c2ccccc2)[n+](=O)c2cc(Cl)c(Cl)cc2n1[O-] |  | 1.51 µM | 24.2 µM | 33.6 µM | 18.9 µM | > 100 µM | 2.77 µM | 23.6 µM | 4.6 µM |  | 0.285 µM | 2.09 µM | 11.9 µM | 18.5 µM | 4.06 µM | 2.68 µM | 1.31 µM | 3.85 µM | 20.1 µM | 49.9 µM
COc1cc([N+](=O)[O-])c(OC)cc1-c1nc2sc(C)c(C)n2c1/C(N)=N/C(=N)N | > 100 µM | > 100 µM | > 100 µM |  | > 100 µM | > 100 µM | > 100 µM | > 100 µM | > 100 µM | > 100 µM | 59.3 µM | 51.6 µM | > 100 µM |  | > 100 µM | > 100 µM | > 100 µM | 13.6 µM |  | 
CN=c1ss/c(=N\C(=S)N(C)C)n1C | > 100 µM | > 100 µM | > 100 µM | > 100 µM | > 100 µM | > 100 µM | > 100 µM |  | > 100 µM |  |  |  |  |  |  |  |  |  |  | 
NC1NC=NC2C1N=CN2C1OC(CO)C2[O][Sn][O]C21 (stereo not given) | > 100 µM | > 100 µM | > 100 µM | > 100 µM | > 100 µM | > 100 µM | > 100 µM | > 100 µM | > 100 µM | > 100 µM | > 100 µM | 27.5 µM | > 100 µM | > 100 µM | > 100 µM | > 100 µM | > 100 µM | > 100 µM |  | 
CCOC(=O)C(C)(NC(=O)c1ccc(NCc2ccc3nc(NC(=O)c4ccccc4)nc(NC(=O)c4ccccc4)c3c2)cc1)C(=O)OCC | 69.7 µM | > 100 µM | 23.6 µM | 27.4 µM | 31.2 µM | > 100 µM |  | > 100 µM | 18.9 µM |  |  |  |  |  |  |  |  |  |  | 
O=[N+]([O-])c1ccc(C2=Nc3ccccc3S(=O)C(c3ccccc3)C2)cc1 (stereo not given) | 34.9 µM | 29.6 µM | 44.2 µM | 73.6 µM | 84.7 µM | 39.1 µM | 41.3 µM | 40 µM |  |  |  |  |  |  |  |  |  |  |  | 
COc1cc(C2c3cc4c(cc3[C@@H](NCCN(C)C)C3COC(=O)[C@H]23)OCO4)cc(OC)c1O (stereo not given in full) | 1.69 µM and 2.64 µM | > 100 µM and 12 µM | 0.045 µM and 0.192 µM | 0.565 µM and 0.649 µM | 0.191 µM and 0.372 µM | 0.124 µM and 0.121 µM | 2.22 µM and 2.63 µM |  | 0.0928 µM and 0.335 µM | 0.383 µM and 1.21 µM |  |  | < 0.01 µM and 0.0269 µM | 0.0393 µM and 0.103 µM | 0.0191 µM and 0.0491 µM |  |  |  |  | 
COc1cccc(/C=C/C(=O)c2ccc3cc(OC)ccc3c2)c1 |  | 34.8 µM |  | 22.7 µM | > 50 µM | > 50 µM | 22.9 µM | 17 µM | 41.3 µM |  | 10.8 µM | 11.1 µM |  | 10.7 µM | 17.3 µM | 17.5 µM | 9.91 µM | 8.13 µM | 14.3 µM | 48.3 µM
